Measurements from ChEMBL document CHEMBL3046832, “Synthesis of some sulfonamides, disubstituted sulfonylureas or thioureas and some structurally related variants. A class of promising antitumor agents” (2007).

Key:
Assay type in all cases: functional
[1] = system: M14; test: Cytotoxicity against Homo sapiens (human) M14 cells after 48 hr by SRB assay; conditions: M14, 48 h
[2] = system: U-251; test: Cytotoxicity against Homo sapiens (human) U251 cells after 48 hr by SRB assay; conditions: U-251, 48 h
[3] = system: SNB-75; test: Cytotoxicity against Homo sapiens (human) SNB75 cells after 48 hr by SRB assay; conditions: SNB-75, 48 h
[4] = system: Hs-578T; test: Cytotoxicity against Homo sapiens (human) Hs578T cells after 48 hr by SRB assay
[5] = system: MCF7; test: Cytotoxicity against Homo sapiens (human) MCF7 cells after 48 hr by SRB assay; conditions: MCF7, 48 h
[6] = system: MDA-MB-231; test: Cytotoxicity against Homo sapiens (human) MDA-MB-231 cells after 48 hr by SRB assay; conditions: MDA-MB-231, 48 h
[7] = system: UO-31; test: Cytotoxicity against Homo sapiens (human) UO31 cells after 48 hr by SRB assay; conditions: UO-31, 48 h
[8] = system: RXF 393; test: Cytotoxicity against Homo sapiens (human) RXF393 cells after 48 hr by SRB assay; conditions: RXF 393, 48 h
[9] = system: SN12C; test: Cytotoxicity against Homo sapiens (human) SN12C cells after 48 hr by SRB assay
[10] = system: CAKI-1; test: Cytotoxicity against Homo sapiens (human) Caki1 cells after 48 hr by SRB assay; conditions: CAKI-1, 48 h
[11] = system: 786-0; test: Cytotoxicity against Homo sapiens (human) 786-0 cells after 48 hr by SRB assay; conditions: 786-0, 48 h
[12] = Cytotoxicity against Homo sapiens (human) NCI-ADR-RES cells after 48 hr by SRB assay
[13] = system: SK-OV-3; test: Cytotoxicity against Homo sapiens (human) SKOV3 cells after 48 hr by SRB assay; conditions: SK-OV-3, 48 h
[14] = system: OVCAR-5; test: Cytotoxicity against Homo sapiens (human) OVCAR5 cells after 48 hr by SRB assay; conditions: OVCAR-5, 48 h
[15] = system: OVCAR-4; test: Cytotoxicity against Homo sapiens (human) OVCAR4 cells after 48 hr by SRB assay; conditions: OVCAR-4, 48 h
[16] = system: IGROV-1; test: Cytotoxicity against Homo sapiens (human) IGROV1 cells after 48 hr by SRB assay; conditions: IGROV-1, 48 h
[17] = system: OVCAR-3; test: Cytotoxicity against Homo sapiens (human) OVCAR3 cells after 48 hr by SRB assay; conditions: OVCAR-3, 48 h
[18] = system: UACC-62; test: Cytotoxicity against Homo sapiens (human) UACC62 cells after 48 hr by SRB assay; conditions: UACC-62, 48 h
[19] = system: UACC-257; test: Cytotoxicity against Homo sapiens (human) UACC257 cells after 48 hr by SRB assay; conditions: UACC-257, 48 h
[20] = system: SK-MEL-2; test: Cytotoxicity against Homo sapiens (human) SK-MEL-2 cells after 48 hr by SRB assay; conditions: SK-MEL-2, 48 h
[21] = Cytotoxicity against Homo sapiens (human) breast cancer cells after 48 hr by SRB assay; conditions: Cancer cell lines
[22] = Cytotoxicity against Homo sapiens (human) prostate cancer cells after 48 hr by SRB assay; conditions: Cancer cell lines
[23] = Cytotoxicity against Homo sapiens (human) renal cancer cells after 48 hr by SRB assay; conditions: Cancer cell lines
[24] = Cytotoxicity against Homo sapiens (human) ovarian cancer cells after 48 hr by SRB assay; conditions: Cancer cell lines
[25] = Cytotoxicity against Homo sapiens (human) melanoma cells after 48 hr by SRB assay; conditions: Melanoma cell
[26] = Cytotoxicity against Homo sapiens (human) non-small cell lung cancer cells after 48 hr by SRB assay; conditions: Cancer cell lines
[27] = system: NCI-H460; test: Cytotoxicity against Homo sapiens (human) NCI-H460 cells assessed as cellular growth after 48 hr by Alamar blue assay; design: concentration or dose not given beside the values
[28] = Cytotoxicity against Homo sapiens (human) leukemia cells after 48 hr by SRB assay; conditions: Leukemia cell
[29] = system: SF-268; test: Cytotoxicity against Homo sapiens (human) SF268 cells assessed as cellular growth after 48 hr by Alamar blue assay; design: concentration or dose not given beside the values
[30] = system: BT-549; test: Cytotoxicity against Homo sapiens (human) BT549 cells after 48 hr by SRB assay; conditions: BT-549, 48 h
[31] = system: T47D; test: Cytotoxicity against Homo sapiens (human) T47D cells after 48 hr by SRB assay
[32] = system: SF-539; test: Cytotoxicity against Homo sapiens (human) SF539 cells after 48 hr by SRB assay; conditions: SF-539, 48 h
[33] = system: SF-295; test: Cytotoxicity against Homo sapiens (human) SF295 cells after 48 hr by SRB assay; conditions: SF-295, 48 h
[34] = system: SW-620; test: Cytotoxicity against Homo sapiens (human) SW620 cells after 48 hr by SRB assay; conditions: SW-620, 48 h
[35] = system: KM12; test: Cytotoxicity against Homo sapiens (human) KM12 cells after 48 hr by SRB assay; conditions: KM12, 48 h
[36] = system: HCT-15; test: Cytotoxicity against Homo sapiens (human) HCT15 cells after 48 hr by SRB assay; conditions: HCT-15, 48 h
[37] = system: HT-29; test: Cytotoxicity against Homo sapiens (human) HT-29 cells after 48 hr by SRB assay; conditions: HT-29, 48 h
[38] = system: NCI-H522; test: Cytotoxicity against Homo sapiens (human) NCI-H522 cells after 48 hr by SRB assay; conditions: NCI-H522, 48 h
[39] = Cytotoxicity against Homo sapiens (human) NCI-H322 cells after 48 hr by SRB assay; conditions: NCI-H322, 48 h
[40] = system: NCI-H460; test: Cytotoxicity against Homo sapiens (human) NCI-H460 cells after 48 hr by SRB assay; conditions: NCI-H460, 48 h
[41] = system: EKVX; test: Cytotoxicity against Homo sapiens (human) EKVX cells after 48 hr by SRB assay
[42] = system: RPMI-8226; test: Cytotoxicity against Homo sapiens (human) RPMI8226 cells after 48 hr by SRB assay; conditions: RPMI-8226, 48 h
[43] = system: A549; test: Cytotoxicity against Homo sapiens (human) A549 cells after 48 hr by SRB assay; conditions: A549, 48 h
[44] = system: MCF7; test: Cytotoxicity against Homo sapiens (human) MCF7 cells assessed as cellular growth after 48 hr by Alamar blue assay; design: concentration or dose not given beside the values
[45] = system: HCC 2998; test: Cytotoxicity against Homo sapiens (human) HCC2998 cells after 48 hr by SRB assay; conditions: HCC 2998, 48 h
[46] = system: NCI-H23; test: Cytotoxicity against Homo sapiens (human) NCI-H23 cells after 48 hr by SRB assay; conditions: NCI-H23, 48 h
[47] = system: HOP-62; test: Cytotoxicity against Homo sapiens (human) HOP62 cells after 48 hr by SRB assay; conditions: HOP-62, 48 h

O=C(NC(=S)NS(=O)(=O)c1ccc(N2N=C3c4ccccc4CC3C2c2cccs2)cc1)c1ccccc1 (centres undefined)
GI50 [1]: 21.2 µM
GI50 [2]: 20.1 µM
GI50 [3]: > 100 µM
GI50 [4]: 16.1 µM
GI50 [5]: > 100 µM
GI50 [6]: 22.5 µM
GI50 [7]: 41.1 µM
GI50 [8]: 54 µM
GI50 [9]: 26 µM
GI50 [10]: 26.1 µM
GI50 [11]: 27.9 µM
GI50 [12]: 18.8 µM
GI50 [13]: 90.8 µM
GI50 [14]: 18.7 µM
GI50 [15]: 87.6 µM
GI50 [16]: 3.14 µM
GI50 [17]: 30.6 µM
GI50 [18]: 14.6 µM
GI50 [19]: 42.8 µM
GI50 [20]: 44 µM
GI50 [21]: 38.6 µM
TGI [21]: 83.7 µM
GI50 [22]: 29 µM
TGI [22]: > 100 µM
GI50 [23]: 45.8 µM
TGI [23]: 87.2 µM
GI50 [24]: 41.9 µM
TGI [24]: 95.3 µM
GI50 [25]: 34.1 µM
TGI [25]: 67.7 µM
GI50 [26]: 37.9 µM
TGI [26]: 78.9 µM
Activity [27]: <=32%
GI50 [28]: 27.9 µM
TGI [28]: 77.2 µM
Activity [29]: <=32%
GI50 [30]: 21.6 µM
GI50 [31]: 69.6 µM
GI50 [32]: 27.9 µM
GI50 [33]: 25.4 µM
GI50 [34]: 34.8 µM
GI50 [35]: 28.2 µM
GI50 [36]: 30.2 µM
GI50 [37]: 46 µM
GI50 [38]: 20.5 µM
GI50 [39]: 14.2 µM
GI50 [40]: > 100 µM
GI50 [41]: 19.6 µM
GI50 [42]: 29.7 µM
GI50 [43]: 20.3 µM
Activity [44]: <=32%

O=S(=O)(/N=c1\scc(-c2ccccc2)n1-c1ccccc1)c1ccc(N2N=C3c4ccccc4CC3C2c2cccs2)cc1 (centres undefined)
GI50 [1]: 81.5 µM
GI50 [2]: 31.2 µM
GI50 [3]: > 100 µM
GI50 [4]: 60.6 µM
GI50 [5]: 29.1 µM
GI50 [6]: 52.1 µM
GI50 [7]: > 100 µM
GI50 [8]: 98.2 µM
GI50 [9]: 94.3 µM
GI50 [10]: 73 µM
GI50 [11]: 64.2 µM
GI50 [12]: > 100 µM
GI50 [13]: > 100 µM
GI50 [14]: 88.9 µM
GI50 [15]: > 100 µM
GI50 [17]: > 100 µM
GI50 [18]: 60.3 µM
GI50 [19]: > 100 µM
GI50 [20]: > 100 µM
GI50 [21]: 61.1 µM
TGI [21]: > 100 µM
GI50 [22]: 87.5 µM
TGI [22]: > 100 µM
GI50 [23]: 72.1 µM
TGI [23]: 96.5 µM
GI50 [24]: 87.2 µM
TGI [24]: > 100 µM
GI50 [25]: 74.6 µM
TGI [25]: > 100 µM
GI50 [26]: 66.8 µM
TGI [26]: 98.2 µM
Activity [27]: <=32%
GI50 [28]: 55 µM
TGI [28]: 90.9 µM
Activity [29]: <=32%
GI50 [30]: 47.5 µM
GI50 [31]: > 100 µM
GI50 [32]: > 100 µM
GI50 [33]: 54.5 µM
GI50 [34]: 94.2 µM
GI50 [35]: 32.1 µM
GI50 [36]: 67.4 µM
GI50 [37]: 82 µM
GI50 [45]: 32.8 µM
GI50 [38]: 61.9 µM
GI50 [46]: 68 µM
GI50 [39]: 31.4 µM
GI50 [40]: 95.1 µM
GI50 [41]: 35.5 µM
GI50 [47]: 73.2 µM
GI50 [42]: 51 µM
GI50 [43]: 57 µM
Activity [44]: <=32%

O=C1CCS/C(=N\S(=O)(=O)c2ccc(N3N=C4c5ccccc5CC4C3c3cccs3)cc2)N1c1ccccc1 (centres undefined)
GI50 [1]: 15.3 µM
GI50 [2]: 14.4 µM
GI50 [3]: 30.2 µM
GI50 [4]: 60.6 µM
GI50 [5]: 29.1 µM
GI50 [6]: 52.1 µM
GI50 [7]: > 100 µM
GI50 [8]: 98.2 µM
GI50 [9]: 94.3 µM
GI50 [10]: 73 µM
GI50 [11]: 64.2 µM
GI50 [12]: > 100 µM
GI50 [13]: 32.9 µM
GI50 [14]: 22.4 µM
GI50 [15]: 49.3 µM
GI50 [16]: 17.4 µM
GI50 [17]: 25.9 µM
GI50 [18]: 16.7 µM
GI50 [19]: 24.2 µM
GI50 [20]: 28 µM
GI50 [21]: 61.1 µM
TGI [21]: 56.2 µM
GI50 [24]: 27.8 µM
TGI [24]: 55.4 µM
GI50 [25]: 22 µM
TGI [25]: 33.8 µM
GI50 [26]: 29.6 µM
TGI [26]: 47.4 µM
Activity [27]: <=32%
GI50 [28]: 48.3 µM
TGI [28]: 93.9 µM
Activity [29]: <=32%
GI50 [30]: 47.5 µM
GI50 [31]: > 100 µM
GI50 [32]: 21.8 µM
GI50 [33]: 15.8 µM
GI50 [34]: 24 µM
GI50 [35]: 17.1 µM
GI50 [36]: 15.9 µM
GI50 [37]: 37 µM
GI50 [45]: 17.9 µM
GI50 [38]: 15.9 µM
GI50 [46]: 16.7 µM
GI50 [39]: 12.8 µM
GI50 [40]: > 100 µM
GI50 [41]: 25.7 µM
GI50 [47]: 18.6 µM
GI50 [42]: 18.1 µM
GI50 [43]: 14.4 µM
Activity [44]: <=32%
